Experiment [1] relates to dextran sulfate induced colitis. Particulars: animal model; cited from earlier work.
Experiment [2] deals with CFA-induced mechanical hyperalgesia. Conditions: literature; cited from earlier work.
For experiment [3], the system named is neuropathic pain. Conditions: chronic constriction injury rodent neuropathic pain model; cited from earlier work.
The target of experiment [4] is T1, human VR1 (Homo sapiens, UniProt Q8NER1).
T1 construct: expressed in transfected cells; host or cells: HEK293
T1 sequence (Q8NER1 whole entry): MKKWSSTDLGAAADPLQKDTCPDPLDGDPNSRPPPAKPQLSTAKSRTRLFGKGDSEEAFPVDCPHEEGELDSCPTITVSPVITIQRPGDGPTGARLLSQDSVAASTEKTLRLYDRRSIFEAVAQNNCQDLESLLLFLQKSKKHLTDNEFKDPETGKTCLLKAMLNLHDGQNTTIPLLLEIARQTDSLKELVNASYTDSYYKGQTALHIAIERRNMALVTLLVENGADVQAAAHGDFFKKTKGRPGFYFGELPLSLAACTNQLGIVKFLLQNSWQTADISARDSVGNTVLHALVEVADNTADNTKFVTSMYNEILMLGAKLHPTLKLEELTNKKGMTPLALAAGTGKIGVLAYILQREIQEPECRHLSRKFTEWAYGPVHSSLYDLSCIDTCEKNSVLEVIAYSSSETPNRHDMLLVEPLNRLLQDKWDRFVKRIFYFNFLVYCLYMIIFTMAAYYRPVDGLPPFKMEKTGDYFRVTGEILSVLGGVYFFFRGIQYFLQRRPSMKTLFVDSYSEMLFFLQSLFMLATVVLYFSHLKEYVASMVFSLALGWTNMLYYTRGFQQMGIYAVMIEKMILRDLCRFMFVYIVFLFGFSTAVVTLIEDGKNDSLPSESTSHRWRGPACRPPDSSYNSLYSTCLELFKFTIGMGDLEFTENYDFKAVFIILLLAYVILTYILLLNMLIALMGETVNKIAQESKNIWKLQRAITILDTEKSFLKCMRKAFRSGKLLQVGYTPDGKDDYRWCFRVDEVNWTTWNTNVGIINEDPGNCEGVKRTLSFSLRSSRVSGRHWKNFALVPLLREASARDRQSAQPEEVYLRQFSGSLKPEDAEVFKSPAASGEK
As to the kind of experiment: Human VR1 [3H]RTX binding assay. Particulars: [3H]RTX binding, HEK293 membranes. The essentials:
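Membranes from human VR1-transfected HEK293 cells (~120 μg protein/ml) incubated with [3H]RTX in HEPES pH 7.4 with 0.25 mg/mL BSA, 37 C, 60 min. Bound counts by scintillation after α-acid glycoprotein and centrifugation; nonspecific defined with 200 nM unlabelled RTX. Ki from duplicate means.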

Experiment [5] concerns the target T1, human VR1. As to the kind of experiment: Human VR1 functional assay (FLIPR intracellular Ca2+). The experiment is classed as cell-based. Conditions: inhibition of capsaicin response; for inhibition at 5 µM: read-out: h % I (5 μM). In outline: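 HEK293 cells expressing human VR1, loaded with Calcium 3 dye, were exposed to test compounds for 5 min while FLIPR recorded intracellular Ca2+, then challenged with capsaicin at ~80% maximal response ([…]). EC50 or IC50 came from dose-response curves on quadruplicate-well means.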

In experiment [6] the test system is chronic arthritis. Conditions: tail vein model; cited from earlier work.
The test system of experiment [7] is cough. Particulars: capsaicin and citric acid induced cough, guinea pig; cited from earlier work.

Each structure is given as a SMILES string.

With `Nc1ccc(O)c(C(=O)O)c1` [5-ASA], the protection against colitis entry in experiment [1] is recorded as “protects against dextran sulfate induced colitis”.
For `CC(C)(C)c1ccc(NC(=O)N2CCN(c3ncccc3Cl)CC2)cc1` [BCTC], in experiment [2], the effect on hyperalgesia result is “reduced hyperalgesia”. Besides, the “effect on mechanical hyperalgesia and tactile allodynia” value in experiment [3] was “reduced mechanical hyperalgesia and tactile allodynia”.
In experiment [4], `O=C(CCc1ccc(C(F)(F)F)cc1)Nc1cnc(-c2ccncc2)c(C(F)(F)F)c1` [Cpd 255] yielded a Ki of 329 nM. In addition, the inhibition at 5 µM in experiment [5] came out at 100%.
`O=C(CCc1ccc(C(F)(F)F)cc1)Nc1ccc(-c2cccnc2F)c(C(F)(F)F)c1` [Cpd 258]: the inhibitory constant (Ki) in experiment [4] is 500 nM. The inhibition at 5 µM in experiment [5] was 93%.
In the same order, the values of `Cc1cc(NC(=O)CCc2ccc(C(C)(C)C)cc2)cnc1-c1cccc([N+](=O)[O-])c1` [Cpd 260] are 391 nM and 93%.
For `O=C(CCc1ccc(C(F)(F)F)cc1)Nc1ccc(-n2cnc(Cl)c2Cl)cc1` [Cpd 263] the same measures were 84.4 nM and 67%.
For `Cc1cn(-c2ccc(NC(=O)/C=C/c3ccc(C(F)(F)F)cn3)cc2C(F)(F)F)cn1` [Cpd 277], in experiment [4], affinity was put at a Ki of 140 nM. In experiment [5] (1 μM, read-out: h % I (1 μM)), the inhibition at 1 µM turned out to be 38%.
With `O=C(O)Cc1ccccc1Nc1c(Cl)cccc1Cl` [diclofenac], in experiment [6], the pain relief result is listed as “partially effective”. Moreover, the effect on hyperalgesia result in experiment [2] is “reversed the hyperalgesic effect of zymosan”.
On to `COc1ccc2c(c1)c(CC(=O)O)c(C)n2C(=O)c1ccc(Cl)cc1` [indomethacin], for which, in experiment [6], the pain relief entry is “partially effective”.
Regarding `C=C(C)[C@]12C[C@@H](C)[C@@]34O[C@](Cc5ccccc5)(O[C@@H]1[C@@H]3C=C(COC(=O)Cc1cc(I)c(O)c(OC)c1)C[C@]1(O)C(=O)C(C)=C[C@@H]41)O2` [iodo-resiniferatoxin], the antitussive action entry in experiment [7] is reported as “antitussive action”.
As to `CN1CC[C@]23c4c5ccc(O)c4O[C@H]2[C@@H](O)C=C[C@H]3[C@H]1C5` [morphine], in experiment [6], the pain relief entry is reported as “fully relieved pain”.
For the compound `COc1cccc(C2(O)CCCCC2CN(C)C)c1` (stereo not shown) [tramadol], in experiment [6], the pain relief entry was “fully relieved pain”.

As a reminder, the Ki is the dissociation constant of the complex between target and ligand, obtained from inhibition or displacement. Read a low Ki as higher affinity.

Source of the values: patent US20060223837A1 (priority 2005, published 2006).
